Where two headings read alike, the source gives them in different places.
Key:
[1] = system: RSV-A2-GFP virus; assay: microbe, parasite or virus in culture; assay type: cell-based, Human Respiratory Syncytial Virus
In short: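 IC50 (GFP-expressing cell counts by Acumen imaging) and CC50 (same-well CellTiter-Glo) were obtained by 4-parameter logistic fitting. Compounds were tested in 10-point 3-fold series for 96 h at 37° C, 5% CO2. Thawed Calu-1 ARF cells were infected at MOI 1.2 with GFP-reporter RSV-A2 in 2% FBS DMEM.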

[2] = system: hMPV-GFP virus; assay: microbe, parasite or virus in culture; assay type: cell-based, human metapneumovirus
In short: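 Antiviral IC50 was derived from imaging counts of GFP-expressing cells, with CC50 from a same-well CellTiter-Glo read, both by 4-parameter logistic fitting. VERO cells plus hMPV-GFP (MOI 1.25) were exposed 48 h at 37 °C to 10-point 3-fold compound dilutions (typical final 40,300–2 nM).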

[3] = Calu-1 cells infected with RSV-A2-GFP, 96 hrs, GFP-expressing cells counted, read-out: RSV EC50
[4] = VERO cells infected with hMPV-GFP, 48 hrs, GFP-expressing cells counted, read-out: hMPV EC50
[5] = human respiratory syncytial virus, Calu-1, 96 h, read-out: RSV EC50, Calu-1 cells infected with RSV-A2-GFP, 96 hrs, GFP-expressing cells counted
[6] = human metapneumovirus, Vero, 48 h, read-out: hMPV EC50, VERO cells infected with hMPV-GFP, 48 hrs, GFP-expressing cells counted
[7] = read-out: hMPV EC50, VERO cells infected with hMPV-GFP, 48 hrs, GFP-expressing cells counted
[8] = read-out: RSV EC50, Calu-1 cells infected with RSV-A2-GFP, 96 hrs, GFP-expressing cells counted

SMILES | EC50 [1, 3] [nM] | EC50 [2, 4] [nM] | EC50 [1, 5] [nM] | EC50 [2, 6] [nM] | also measured
Cn1nc(-c2ncccn2)cc1C(=O)N1C[C@@H]2[C@H](C1)[C@H]2Oc1cc(C(C)(C)N)cc(-c2ccc(C(F)(F)F)cc2)n1 [Example 59, ((1R,5S,6s)-6-((4-(2-aminopropan-2-yl)-6-(4-(trifluoromethyl)phenyl)pyridin-2-yl)oxy)-3-azabicyclo[3.1.0]hexan-3-yl)(1-methyl-3-(pyrimidin-2-yl)-1H-pyrazol-5-yl)methanone] | < 10 | 10 to 100 | – | – | –
Cn1nc(-c2ncccn2)cc1C(=O)N1C[C@H]2[C@H](Oc3cc(C(C)(C)N)cc(-c4ccc(F)cc4)n3)[C@@]2(C)C1 (single isomer, unassigned; enantiomer 1) [Example 104A] | – | – | < 10 | > 100 | –
Cc1nc(-c2ncccn2)sc1C(=O)N1C[C@@H]2[C@H](C1)[C@H]2Oc1cc(C(C)(C)N)cc(-c2ccc(C#N)cc2)n1 [Example 23, 4-(4-(2-aminopropan-2-yl)-6-(((1R,5S,6s)-3-(4-methyl-2-(pyrimidin-2-yl)thiazole-5-carbonyl)-3-azabicyclo[3.1.0]hexan-6-yl)oxy)pyridin-2-yl)benzonitrile] | < 10 | > 100 | – | – | –
Cc1nn(-c2ncccn2)cc1C(=O)N1C[C@H]2[C@H](Oc3cc(C(C)(C)N)cc(-c4ccc(F)cc4F)n3)[C@@]2(C)C1 (single isomer, unassigned; enantiomer 1) [Example 109A] | – | – | < 10 | – | EC50 [2, 7]: > 100 nM
Cc1nn(-c2ncccn2)cc1C(=O)N1C[C@H]2[C@H](Oc3cc(C(C)(C)N)cc(-c4ccc(F)cc4F)n3)[C@@]2(C)C1 (single isomer, unassigned; enantiomer 2) [Example 109B] | – | – | – | – | EC50 [1, 8]: < 10 nM; EC50 [2, 7]: 10 to 100 nM
CC(C)(N)c1cc(O[C@H]2[C@@H]3CN(C(=O)c4cn(-c5ncccn5)nc4CCF)C[C@@H]32)nc(-c2ccc(F)cc2)c1 [Example 131, ((1R,5S,6s)-6-((4-(2-aminopropan-2-yl)-6-(4-fluorophenyl)pyridin-2-yl)oxy)-3-azabicyclo[3.1.0]hexan-3-yl)(3-(2-fluoroethyl)-1-(pyrimidin-2-yl)-1H-pyrazol-4-yl)methanone] | – | – | < 10 | > 100 | –
CC(C)(N)c1cc(O[C@@H]2C[C@@H]3[C@H]2CN3C(=O)c2cnc(-c3ncccn3)s2)nc(-c2ccc(F)cc2)c1 (single isomer, unassigned) [Example 2] | – | – | 10 to 100 | > 100 | –
Cc1nc(-c2ncccn2)sc1C(=O)N1C[C@@H]2[C@H](C1)[C@H]2Oc1cc(C(C)(C)N)cc(-c2ccc(C3CC3)cc2)n1 [Example 22, ((1R,5S,6s)-6-((4-(2-aminopropan-2-yl)-6-(4-cyclopropylphenyl)pyridin-2-yl)oxy)-3-azabicyclo[3.1.0]hexan-3-yl)(4-methyl-2-(pyrimidin-2-yl)thiazol-5-yl)methanone] | < 10 | > 100 | – | – | –
CC(C)(N)c1cc(O[C@H]2[C@@H]3CN(C(=O)c4cnn(-c5ncccn5)c4)C[C@@H]32)nc(-c2ccc(F)cc2)c1 [Example 63, ((1R,5S,6s)-6-((4-(2-aminopropan-2-yl)-6-(4-fluorophenyl)pyridin-2-yl)oxy)-3-azabicyclo[3.1.0]hexan-3-yl)(1-(pyrimidin-2-yl)-1H-pyrazol-4-yl)methanone] | < 10 | > 100 | – | – | –
Cc1nc(-c2ncccn2)sc1C(=O)N1C[C@H]2[C@H](Oc3cc(C(C)(C)N)cc(-c4ccc(F)cc4)n3)[C@@]2(C)C1 (single isomer, unassigned; enantiomer 1) [Example 103A] | – | – | < 10 | 10 to 100 | –
Cn1nc(-c2ncccn2)cc1C(=O)N1C[C@H]2[C@H](Oc3cc(C(C)(C)N)cc(-c4ccc(F)cc4)n3)[C@@]2(C)C1 (single isomer, unassigned; enantiomer 2) [Example 104B] | – | – | – | – | EC50 [1, 8]: < 10 nM; EC50 [2, 7]: > 100 nM
Cn1nc(-c2ncccn2)cc1C(=O)N1C[C@@H]2[C@H](C1)[C@H]2Oc1cc(C(C)(C)N)cc(-c2ccc(Cl)cc2)n1 [Example 58, ((1R,5S,6s)-6-((4-(2-aminopropan-2-yl)-6-(4-chlorophenyl)pyridin-2-yl)oxy)-3-azabicyclo[3.1.0]hexan-3-yl)(1-methyl-3-(pyrimidin-2-yl)-1H-pyrazol-5-yl)methanone] | < 10 | 10 to 100 | – | – | –
CC(C)(N)c1cc(O[C@@H]2C[C@@H]3[C@H]2CN3C(=O)c2cn(-c3ncccn3)nc2C2CC2)nc(-c2ccc(F)cc2)c1 (single isomer, unassigned; enantiomer 2) [Example 6] | – | – | < 10 | > 100 | –
CCC(N)c1cc(O[C@H]2[C@@H]3CN(C(=O)c4cn(-c5ncccn5)nc4C)C[C@@H]32)nc(-c2ccc(F)cc2)c1 (stereo partly drawn) [Example 117A, ent-((1R,5S,6s)-6-((4-(1-aminopropyl)-6-(4-fluorophenyl)pyridin-2-yl)oxy)-3-azabicyclo[3.1.0]hexan-3-yl)(3-methyl-1-(pyrimidin-2-yl)-1H-pyrazol-4-yl)methanone] | < 10 | > 100 | – | – | –
CCOc1nn(-c2ncccn2)cc1C(=O)N1C[C@@H]2[C@H](C1)[C@H]2Oc1cc(C(C)(C)N)cc(-c2ccc(F)cc2)n1 [Example 68, ((1R,5S,6s)-6-((4-(2-aminopropan-2-yl)-6-(4-fluorophenyl)pyridin-2-yl)oxy)-3-azabicyclo[3.1.0]hexan-3-yl)(3-ethoxy-1-(pyrimidin-2-yl)-1H-pyrazol-4-yl)methanone] | < 10 | > 100 | – | – | –
CC(C)(N)c1cc(O[C@H]2[C@@H]3CN(C(=O)c4cn(-c5ncccn5)nc4C(F)(F)F)C[C@@H]32)nc(-c2ccc(F)c(F)c2)c1 [Example 92, ((1R,5S,6s)-6-((4-(2-aminopropan-2-yl)-6-(3,4-difluorophenyl)pyridin-2-yl)oxy)-3-azabicyclo[3.1.0]hexan-3-yl)(1-(pyrimidin-2-yl)-3-(trifluoromethyl)-1H-pyrazol-4-yl)methanone] | < 10 | > 100 | – | – | –
Cc1nc(-c2ncccn2)sc1C(=O)N1C[C@@H]2[C@H](C1)[C@H]2Oc1cc(C(C)(C)N)cc(-c2ccc(F)c(F)c2F)n1 [Example 14, ((1R,5S,6s)-6-((4-(2-aminopropan-2-yl)-6-(2,3,4-trifluorophenyl)pyridin-2-yl)oxy)-3-azabicyclo[3.1.0]hexan-3-yl)(4-methyl-2-(pyrimidin-2-yl)thiazol-5-yl)methanone] | < 10 | 10 to 100 | – | – | –
Cc1nn(-c2ncccn2)cc1C(=O)N1C[C@@H]2[C@H](C1)[C@H]2Oc1cc(C(C)(C)N)cc(-c2ccc(F)cc2)n1 [Example 61, ((1R,5S,6s)-6-((4-(2-aminopropan-2-yl)-6-(4-fluorophenyl)pyridin-2-yl)oxy)-3-azabicyclo[3.1.0]hexan-3-yl)(3-methyl-1-(pyrimidin-2-yl)-1H-pyrazol-4-yl)methanone] | – | – | < 10 | > 100 | –
Cc1nn(-c2ncccn2)cc1C(=O)N1C[C@@H]2[C@H](C1)[C@H]2Oc1cc(C(C)(C)N)cc(-c2ccc(Cl)cc2)n1 [Example 85, ((1R,5S,6s)-6-((4-(2-aminopropan-2-yl)-6-(4-chlorophenyl)pyridin-2-yl)oxy)-3-azabicyclo[3.1.0]hexan-3-yl)(3-methyl-1-(pyrimidin-2-yl)-1H-pyrazol-4-yl)methanone] | < 10 | 10 to 100 | – | – | –
Cc1nn(-c2ncccn2)cc1C(=O)N1C[C@@H]2[C@H](C1)[C@H]2Oc1cc(C(C)(C)N)c(Cl)c(-c2ccc(F)cc2)n1 [Example 120, ((1R,5S,6s)-6-((4-(2-aminopropan-2-yl)-5-chloro-6-(4-fluorophenyl)pyridin-2-yl)oxy)-3-azabicyclo[3.1.0]hexan-3-yl)(3-methyl-1-(pyrimidin-2-yl)-1H-pyrazol-4-yl)methanone] | – | – | < 10 | > 100 | –
Cc1nn(-c2ncc(F)cn2)cc1C(=O)N1C[C@@H]2[C@H](C1)[C@H]2Oc1cc(C(C)(C)N)cc(-c2ccc(F)cc2)n1 [Example 71, ((1R,5S,6s)-6-((4-(2-aminopropan-2-yl)-6-(4-fluorophenyl)pyridin-2-yl)oxy)-3-azabicyclo[3.1.0]hexan-3-yl)(1-(5-fluoropyrimidin-2-yl)-3-methyl-1H-pyrazol-4-yl)methanone] | < 10 | > 100 | – | – | –
Cc1nn(-c2ncccn2)cc1C(=O)N1C[C@@H]2[C@H](C1)[C@H]2Oc1cc(C(C)(C)N)cc(-n2ncc3c(Cl)cccc32)n1 [Example 94, ((1R,5S,6s)-6-((4-(2-aminopropan-2-yl)-6-(4-chloro-1H-indazol-1-yl)pyridin-2-yl)oxy)-3-azabicyclo[3.1.0]hexan-3-yl)(3-methyl-1-(pyrimidin-2-yl)-1H-pyrazol-4-yl)methanone] | – | – | < 10 | > 100 | –
Cc1nn(-c2ncccn2)cc1C(=O)N1C[C@@H]2[C@H](C1)[C@H]2Oc1cc(C(C)(C)N)cc(C2=CCC(C)(C)CC2)n1 [Example 90, ((1R,5S,6s)-6-((4-(2-aminopropan-2-yl)-6-(4,4-dimethylcyclohex-1-en-1-yl)pyridin-2-yl)oxy)-3-azabicyclo[3.1.0]hexan-3-yl)(3-methyl-1-(pyrimidin-2-yl)-1H-pyrazol-4-yl)methanone] | < 10 | > 100 | – | – | –

Source: patent US12643882B2, “Inhibitors of human respiratory syncytial virus and metapneumovirus” (priority 2022, dated 2026)
